From patent US20140135270A1, “MACROCYCLIC COMPOUNDS FOR INHIBITION OF INHIBITORS OF APOPTOSIS” (Ensemble Therapeutics Corp., priority 2012, published 2014)
Read-outs that look alike come from different tables or passages of the source.

Columns and labels:
[1] = target: T1, His-BIR2-3 (125-356, C202A/C213G, XIAP) (Homo sapiens, UniProt P98170, C202A/C213G); experiment: XIAP-BIR2-3 Dimeric SMAC Peptide Homogeneous Time Resolved Fluorescence (HTRF) Assay; format: binding; conditions: fluorescein labeled dimeric SMAC peptide
T1 construct: additions of His-BIR2-3 (125-356, C202A/C213G, XIAP), fluorescein labeled dimeric SMAC peptide
T1 sequence (P98170 125-356 C202A/C213G): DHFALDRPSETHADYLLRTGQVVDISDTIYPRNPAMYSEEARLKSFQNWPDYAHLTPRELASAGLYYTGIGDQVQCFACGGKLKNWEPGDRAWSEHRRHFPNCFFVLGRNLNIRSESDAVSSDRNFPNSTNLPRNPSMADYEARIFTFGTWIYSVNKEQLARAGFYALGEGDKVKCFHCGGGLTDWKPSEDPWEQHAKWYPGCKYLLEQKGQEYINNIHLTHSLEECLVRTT

His-BIR3 (241-356, XIAP) = target: T2, His-BIR3 (241-356, XIAP) (Homo sapiens, UniProt P98170); experiment: XIAP-BIR3/SMAC Homogeneous Time Resolved Fluorescence (HTRF) Assay; format: binding; conditions: fluorescein labeled SMAC peptide
T2 construct: additions of His-BIR3 (241-356, XIAP), fluorescein labeled SMAC peptide
T2 sequence (P98170 241-356): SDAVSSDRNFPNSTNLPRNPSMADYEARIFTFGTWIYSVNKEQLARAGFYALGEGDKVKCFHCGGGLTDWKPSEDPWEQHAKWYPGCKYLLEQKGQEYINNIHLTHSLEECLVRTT

[2] = target: T3, His-BIR2 (124-240/C202A/C213G) (Homo sapiens, UniProt P98170, C202A/C213G); experiment: XIAP-BIR2/SMAC Peptide AlphaScreen Assay; format: binding
T3 construct: additions of His-BIR2 (124-240/C202A/C213G), Biotinylated SMAC peptide
T3 sequence (P98170 124-240 C202A/C213G): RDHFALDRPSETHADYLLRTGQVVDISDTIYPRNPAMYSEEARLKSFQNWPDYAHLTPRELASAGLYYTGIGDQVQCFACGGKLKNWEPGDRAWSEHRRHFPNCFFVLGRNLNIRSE
Description: C. XIAP-BIR2/SMAC Peptide AlphaScreen Assay
Assays were performed in white, flat-bottom, 384-well ProxiPlates (Perkin Elmer). […]. The reaction was incubated at room temperature for 60 minutes. After 60 minutes, 2.5 μL of Alphascreen detection reagent (Perkin Elmer) was added to the reaction mixture and incubated at room temperature in the dark for 120 minutes. The Alphascreen signal generated by the reaction was detected on the Envision Plate Reader. Inhibition data were calculated from an Alphascreen signal generated by the no protein control reactions for 100% inhibition and vehicle-only reactions for 0% inhibition. […]
Biotinylated SMAC peptide, 4 μg/mL Alphascreen detection reagents, and 0.5% DMSO. Dose response curves were generated to determine the concentration required for inhibiting 50% of the activity (IC50). Compounds were dissolved at 10 mM in dimethylsulfoxide (DMSO) and evaluated at eleven concentrations. IC50 values were derived by non-linear regression analysis.

[3] = target: T4, N-His-Tb-BIR3(241-356, XIAP) (Homo sapiens, UniProt P98170); experiment: XIAP-BIR3 SMAC Peptide Fluorescence Polarization Assay (FPA); format: binding
T4 construct: additions of N-His-Tb-BIR3(241-356, XIAP), fluoresceinated modified SMAC peptide; Tb (meaning not explained; sits between His tag and BIR3) (N)
T4 sequence (P98170 241-356): as the sequence (P98170 241-356) above
Description: A. XIAP-BIR3 SMAC Peptide Fluorescence Polarization Assay (FPA) Assays were performed in black, flat-bottom, 384-well plates. The final assay volume was 50 μL prepared from additions of N-His-Tb-BIR3(241-356, XIAP), fluoresceinated modified SMAC peptide, and test compounds in assay buffer consisting of 20 mM Sodium Phosphate, 1 mM EDTA, 50 mM NaCl, and 0.05% Pluronic F68. The reaction was incubated at room temperature for 60 minutes and fluorescence polarization of the reaction was detected on the LJL Plate Reader. Inhibition data were calculated from mP values generated by the no protein control reactions for 100% inhibition and vehicle-only reactions for 0% inhibition. The final concentration of reagents in the assay was 130 nM N-His-Tb-BIR3(241-356, XIAP), 1.4 nM fluoresceinated modified SMAC peptide, and 1% DMSO. Dose response curves were generated to determine the concentration required for inhibiting 50% of polarization activity (IC50). Compounds were dissolved at 10 mM in dimethylsulfoxide (DMSO) and evaluated at eleven concentrations. IC50 values were derived by non-linear regression analysis.

[4] = the molecule shown is the open-chain precursor, rcm bond
[5] = biotinylated SMAC peptide, read-out: BIR2 ALPHA IC50
[6] = read-out: BIR3 FPA IC50, fluorescence polarization, fluoresceinated modified SMAC peptide
[7] = read-out: BIR2 ALPHA IC50, biotinylated SMAC peptide
[8] = fluorescence polarization, fluoresceinated modified SMAC peptide, read-out: BIR3 FPA IC50

| Molecule | IC50 [2, 5] [nM] | IC50 [3] [nM] | further results |
| --- | --- | --- | --- |
| CNC(C)C(=O)NC(C(=O)N1CC2CC1C(=O)NC(Cc1ccc3ccccc3c1)C(=O)NC(C(=O)O)Cc1ccc(cc1)OCC=CCOC1CC(C(=O)NC(Cc3ccc4ccccc4c3)C(=O)NC(C(=O)O)CCC(=O)N2)N(C(=O)C(NC(=O)C(C)NC)C(C)(C)C)C1)C(C)(C)C (stereo not shown) [Example 33] | 21.6 |  | IC50 [1]: 9.5 nM; IC50 (His-BIR3 (241-356, XIAP)): 84.7 nM; IC50 [3, 6]: 31.6 nM |
| (S)-tert-butyl 2-((S)-2-((2S,4S)-4-((5-((4-((S)-2-((S)-2-((2S,4S)-4-allyl-1-((S)-2-((S)-2-((tert-butoxycarbonyl)(methyl)amino)propanamido)-3,3-dimethylbutanoyl)pyrrolidine-2-carboxamido)-3-(naphthalen-2-yl)propanamido)-3-(cyclopropanesulfonamido)-3-oxopropyl)phenoxy)methyl)-1H-1,2,3-triazol-1-yl)-1-((S)-2-((S)-2-((tert-butoxycarbonyl)(methyl)amino)propanamido)-3,3-dimethylbutanoyl)pyrrolidine-2-carboxamido)-3-(naphthalen-2-yl)propanamido)-3-(4-(allyloxy)phenyl)propanoate |  |  | ring closure, isolated yield ([4]; 37-membered ring, 2 steps): 2% |
| (S)-Methyl 2-((S)-2-((2S,4S)-4-allyl-1-((S)-2-((S)-2-((tert-butoxycarbonyl)(methyl)amino)propanamido)-3,3-dimethylbutanoyl)pyrrolidine-2-carboxamido)-3-(naphthalen-2-yl)propanamido)-3-(4-(((E)-4-((3S,5S)-5-(((S)-1-(((S)-3-(4-(allyloxy)phenyl)-1-(cyclopropanesulfonamido)-1-oxopropan-2-yl)amino)-3-(naphthalen-2-yl)-1-oxopropan-2-yl)carbamoyl)-1-((S)-2-((S)-2-((tert-butoxycarbonyl)(methyl)amino)propanamido)-3,3-dimethylbutanoyl)pyrrolidin-3-yl)but-2-en-1-yl)oxy)phenyl)propanoate |  |  | ring closure, isolated yield ([4]; 38-membered ring, Grubbs I (2 portions), DCE, 1.1 mM, 55.0 °C): 64% |
| CNC(C)C(=O)NC(C(=O)N1CC2CC1C(=O)NC(Cc1ccc3ccccc3c1)C(=O)NC(C(=O)O)Cc1ccc(cc1)OCC=CCOC1CC(C(=O)NC(Cc3ccc4ccccc4c3)C(=O)NC(C(=O)O)CCCC(=O)N2)N(C(=O)C(NC(=O)C(C)NC)C(C)(C)C)C1)C(C)(C)C (stereo not shown) [Example 36] | 38.8 |  | IC50 [3, 6]: 49 nM |
| CN[C@@H](C)C(=O)N[C@H](C(=O)N1C[C@@H]2C[C@H]1C(=O)N[C@@H](Cc1ccc3ccccc3c1)C(=O)N[C@H](C(=O)O)C/C=C/CO[C@H]1C[C@@H](C(=O)N[C@@H](Cc3ccc4ccccc4c3)C(=O)N[C@H](C(=O)O)CCCC(=O)N2)N(C(=O)[C@@H](NC(=O)[C@H](C)NC)C(C)(C)C)C1)C(C)(C)C [Example 38] | 116 | 42.1 |  |
| CN[C@@H](C)C(=O)N[C@H](C(=O)N1C[C@@H]2C[C@H]1C(=O)N[C@@H](Cc1ccc3ccccc3c1)C(=O)N[C@H](C(=O)O)COC/C=C/CO[C@H]1C[C@@H](C(=O)N[C@@H](Cc3ccc4ccccc4c3)C(=O)N[C@H](C(=O)O)CCC(=O)N2)N(C(=O)[C@@H](NC(=O)[C@H](C)NC)C(C)(C)C)C1)C(C)(C)C [Example 34] | 33.6 | 40.1 |  |
| CN[C@@H](C)C(=O)N[C@H](C(=O)N1C[C@@H]2C[C@H]1C(=O)N[C@@H](Cc1ccc3ccccc3c1)C(=O)N[C@H](C(=O)O)C/C=C/CO[C@H]1C[C@@H](C(=O)N[C@@H](Cc3ccc4ccccc4c3)C(=O)N[C@H](C(=O)O)CC(=O)N2)N(C(=O)[C@@H](NC(=O)[C@H](C)NC)C(C)(C)C)C1)C(C)(C)C [Example 43] | 147 | 74.1 |  |
| CNC(C)C(=O)NC(C(=O)N1CC2CC1C(=O)NC(Cc1ccc3ccccc3c1)C(=O)NC(C(=O)O)Cc1ccc(cc1)OCCCCOC1CC(C(=O)NC(Cc3ccc4ccccc4c3)C(=O)NC(C(=O)NS(C)(=O)=O)Cc3ccc(cc3)OCc3cn2nn3)N(C(=O)C(NC(=O)C(C)NC)C(C)(C)C)C1)C(C)(C)C (stereo not shown) [Example 8] |  |  | IC50 [2, 7]: 190 nM; IC50 [3, 8]: 49.6 nM |
| CN[C@@H](C)C(=O)N[C@H](C(=O)N1C[C@@H]2C[C@H]1C(=O)N[C@@H](Cc1ccc3ccccc3c1)C(=O)N[C@H](C(=O)O)Cc1ccc(cc1)OC/C=C/CO[C@H]1C[C@@H](C(=O)N[C@@H](Cc3ccc4ccccc4c3)C(=O)N[C@H](C(=O)O)CC(=O)N2)N(C(=O)[C@@H](NC(=O)[C@H](C)NC)C(C)(C)C)C1)C(C)(C)C [Example 41] | 45.7 | 46.7 |  |
| (S)-tert-Butyl 2-((S)-2-((2S,4S)-4-allyl-1-((S)-2-((S)-2-((tert-butoxycarbonyl)(methyl)amino)propanamido)-3,3-dimethylbutanoyl)pyrrolidine-2-carboxamido)-3-(naphthalen-2-yl)propanamido)-3-(4-((1-((3R,5S)-5-(((S)-1-(((S)-2-(4-(allyloxy)phenyl)-1-(1-trityl-1H-tetrazol-5-yl)ethyl)amino)-3-(naphthalen-2-yl)-1-oxopropan-2-yl)carbamoyl)-1-((S)-2-((S)-2-((tert-butoxycarbonyl)(methyl)amino)propanamido)-3,3-dimethylbutanoyl)pyrrolidin-3-yl)-1H-1,2,3-triazol-4-yl)methoxy)phenyl)propanoate |  |  | ring closure, isolated yield ([4]; 38-membered ring, Hoveyda-Grubbs II (2 portions), DCE, 2.34 mM, 70.0 °C): 48% |
| CNC(C)C(=O)NC(C(=O)N1CC2CC1C(=O)NC(Cc1ccc3ccccc3c1)C(=O)NC(C(=O)O)Cc1ccc(cc1)OCC=CCOC1CC(C(=O)NC(Cc3ccc4ccccc4c3)C(=O)NC(C(=O)O)Cc3ccc(cc3)C(=O)N2)N(C(=O)C(NC(=O)C(C)NC)C(C)(C)C)C1)C(C)(C)C (stereo not shown) [Example 32] | 16.2 |  | IC50 [3, 6]: 36.1 nM |
| CN[C@@H](C)C(=O)N[C@H](C(=O)N1C[C@@H]2C[C@H]1C(=O)N[C@@H](Cc1ccc3ccccc3c1)C(=O)N[C@H](C(=O)O)COC/C=C/CO[C@H]1C[C@@H](C(=O)N[C@@H](Cc3ccc4ccccc4c3)C(=O)N[C@H](C(=O)O)CC(=O)N2)N(C(=O)[C@@H](NC(=O)[C@H](C)NC)C(C)(C)C)C1)C(C)(C)C [Example 42] | 74.6 | 44 |  |
| CN[C@@H](C)C(=O)N[C@H](C(=O)N1C[C@@H]2C[C@H]1C(=O)N[C@@H](Cc1ccc3ccccc3c1)C(=O)N[C@H](C(=O)O)C/C=C/CO[C@H]1C[C@@H](C(=O)N[C@@H](Cc3ccc4ccccc4c3)C(=O)N[C@H](C(=O)O)Cc3ccc(cc3)C(=O)N2)N(C(=O)[C@@H](NC(=O)[C@H](C)NC)C(C)(C)C)C1)C(C)(C)C [Example 40] | 44.2 | 26.3 |  |
| CNC(C)C(=O)NC(C(=O)N1CC2CC1C(=O)NC(Cc1ccc3ccccc3c1)C(=O)NC(C(=O)O)Cc1ccc(cc1)OCC=CCOC1CC(C(=O)NC(Cc3ccc4ccccc4c3)C(=O)NC(C(=O)NS(C)(=O)=O)Cc3ccc(cc3)OCc3cn2nn3)N(C(=O)C(NC(=O)C(C)NC)C(C)(C)C)C1)C(C)(C)C (stereo not shown) [Example 5] |  |  | IC50 [2, 7]: 71.5 nM; IC50 [3, 8]: 50 nM |
| CN[C@@H](C)C(=O)N[C@H](C(=O)N1C[C@@H]2C[C@H]1C(=O)N[C@@H](Cc1ccc3ccccc3c1)C(=O)N[C@H](C(=O)O)COC/C=C/CO[C@H]1C[C@@H](C(=O)N[C@@H](Cc3ccc4ccccc4c3)C(=O)N[C@H](C(=O)O)Cc3ccc(cc3)C(=O)N2)N(C(=O)[C@@H](NC(=O)[C@H](C)NC)C(C)(C)C)C1)C(C)(C)C [Example 39] | 41.1 | 31.3 |  |
| CN[C@@H](C)C(=O)N[C@H](C(=O)N1C[C@@H]2C[C@H]1C(=O)N[C@@H](Cc1ccc3ccccc3c1)C(=O)N[C@H](C(=O)O)COC/C=C/CO[C@H]1C[C@@H](C(=O)N[C@@H](Cc3ccc4ccccc4c3)C(=O)N[C@H](C(=O)O)CCCC(=O)N2)N(C(=O)[C@@H](NC(=O)[C@H](C)NC)C(C)(C)C)C1)C(C)(C)C [Example 37] | 58.2 | 33 |  |
